Results taken from patent US20220160751A1, “METHODS OF TREATMENT OF DISEASES AND DISORDERS ASSOCIATED WITH INCREASED TET LEVEL, INCREASED H19 LEVEL, INCREASED LEVEL OF TGF SIGNALING, OR ANY COMBINATION THEREOF” (YALE UNIVERSITY, priority 2019, published 2022).

How the values were obtained:
HUVECs = experiment: RT-qPCR and Western blot of gene expression in HUVECs; type: cell-based, human; details: for H19 expression (RT-qPCR): overnight treatment vs vehicle
Description: HUVECs (Lonza, CC-2517) were maintained in a growth medium composed of endothelial basal medium (EBM-2, CC-3156) supplemented with EGM-2 MV BulletKit (CC-4147, Lonza). Cells were used between passages P2-P5. For cytokine treatment, cells were incubated overnight with indicated concentrations of TNF-α, TNF-α plus IL-1β, or Hcy in endothelial basal medium. Cells were transfected in a 24-well plate scale. To prepare siRNA transfection solution for each well, 10 pmol of siCon, siH19, or siTET1 were mixed with 25 μl of OPTI-MEM by gentle pipetting. In parallel, 1 μl of Lipofectamine 3000 was mixed with 25 μl of OPTI-MEM. Following 5 min of incubation at RT, the two were mixed by gentle pipetting and incubated for 10 min at RT to allow siRNA/lipid complexes to form. At the end of incubation, the 50 μl of transfection solution was used to resuspend cell pellet (3×10^4 cells/well). After incubation at room temperature (RT) for 10 min, growth medium was added at a ratio of 1:9 (1 volume of transfection solution/9 volumes of growth medium) and the cell suspension was transferred to a culture plate. For cytokine treatment combined with H19 knockdown, cells were transfected with siCon or siH19 for 24 h, followed by addition of TNF-α at a final concentration of 10 ng/ml for an additional 24 h before RNA extraction. For iLet 7 rescue experiments, 10 pmol of siCon+iCon, iCon+siH19, or siH19+iLet7 were used for each well of 3×10^4 cells. Forty-eight hours after the transfection, RNA and protein were extracted for analysis.
To prepare DNA/lipid complexes for pH19/pTET1 overexpression (FIG. 23) or pTET1 overexpression rescue (FIG. 22) experiments, empty vector (0.5 μg), pH19 ([…]), or pTET1 (0.75 μg) were mixed with 1 μl of P3000 in 25 μl of OPTI-MEM by gentle pipetting. In parallel, 0.75 μl of Lipofectamin 3000 was mixed with 25 μl of OPTI-MEM. The contents in the two tubes were mixed by gentle pipetting and incubated at RT for 5 min. The resulting DNA/lipid complexes (50 μl) were added to one well of cells (8×10^4) which had been seeded in a 24-well plate in growth medium the night before. Following incubation at RT for 10 min, 300 μl of OPTI-MEM was added and cells were incubated in a tissue culture incubator for 4-6 h. […]
HUVECs in 24-well plates were dissociated with 0.25% trypsin. […] Bands on Western blot gels were quantified using ImageJ. […]
Total RNAs were extracted using PureLink RNA Mini Kit (Ambion, catalog number 12183018A). cDNA was synthesized using PrimeScript RT Reagent Kit (TAKARA, RR037A) in a 20 μl reaction containing 0.5-1 μg of total RNA. Real-time quantitative PCR was performed in a 15 μl reaction containing 0.5-1 μl of cDNA using iQSYBRGreen (Bio-Rad) in a Bio-Rad iCycler. […]

[1] = system: UtLM and ht-UtLM leiomyoma cells; experiment: RT-qPCR and Western blot of gene expression in leiomyoma cells; type: cell-based, human; details: ht-UtLM cells, 24 h, 10^−8M
Text: Antibodies for TET3 (GeneTex, GTX121453; used at a dilution of 1/500), TGFBR2 (Abcam, ab184948; used at a dilution of 1/1000), TSP1 (Abcam, ab85762; used at a dilution of 1/500), MED12 (Novus Biological, NB100-2357; used at a dilution of 1/500), HMGA2 (Proteintech, 20795-1-AP; used at a dilution of 1/500), GRAF1 (Cell Signaling, 8802; used at a dilution of 1/500), SPARC (Cell Signaling, 8725; used at a dilution of 1/500), COL3A1 (LS-Bio, LS-C159386; used at a dilution of 1/1000), COL4A1 (LS-Bio, LS-C100552; used at a dilution of 1/500), COL5A2 (Origene, TA809611; used at a dilution of 1/500) and GAPDH (Abcam, ab128915; used at a dilution of 1/10000) were purchased. Human H19 siRNA (siH19) and control siRNA (siCon) were previously described (Ghazal S et al., 2015, EMBO Mol Med 7:996-1003). siTET3 (Ambion, 4392420/s47239), estradiol ([…], Sigma), and progesterone ([…], Sigma) were purchased. Estradiol and progesterone were dissolved in DMSO and used at a final concentration of 10^-8M. ht-UtLM cells tested negative for mycoplasma contamination were maintained in MEM (Sigma, #M3024) supplemented with 20% fetal bovine serum, 1×MEM Vitamin Solution (Invitrogen #11120-052), 1×MEM Amino Acids Solution (Invitrogen, #11130-051), and 1×MEM Non-Essential Amino Acids (Invitrogen #11140-050). Primary UtLM-1 and UtLM-2 cells were maintained in DMEM (Gibco, #10567014) supplemented with 20% fetal bovine serum, and 1% penicillin/streptomycin, 1% amphotericin B. All cells were transfected in a 24-well plate scale. To prepare siRNA transfection solution for each well, 10 pmol (5 pmol for primary cells) of siCon, siH19, or siTET3 were mixed with 25 μl of OPTI-MEM by gentle pipetting. In parallel, 1 μl of Lipofectamine 3000 was mixed with 25 μl of OPTI-MEM. Following 5 min of incubation at room temperature, the two were mixed by gentle inverting and incubated for 10 min at room temperature to allow siRNA/lipid complexes to form. At the end of incubation, the 50 μl of transfection solution was used to re-suspend the cell pellet (3×10^4 cells). After incubation at room temperature for 10 min, growth medium was added at a ratio of 1:9 (1 volume of transfection solution/9 volumes of growth medium), and the cell suspension was transferred to a new culture dish. After overnight incubation in a tissue culture incubator, the medium was replaced with fresh growth medium. For iLet 7 rescue experiments, 10 pmol of siCon/siH19 and 10 pmol of iCon/iLet7 were used for each well of 3×10^4 cells. RNA, genomic DNA, and protein were extracted and analyzed at the indicated time points following transfection.

[2] = system: Hnf4a P2 and P1 promoters; experiment: ChIP-qPCR and QMSP of Hnf4a promoters in mouse hepatocytes; type: cell-based
Description: Genomic DNA was extracted from mouse primary hepatocytes grown in 12-well plates using Quick-gDNA MicroPrep (Zymo Research Corporation, D3021) according to the manufacturer's instructions. For bisulfite treatment, 480 ng of DNA was used for each column using EZ DNA Methylation-Gold Kit (Zymo, D5006). 100 μl of elution buffer was used to elute DNA from each column. Real-time quantitative PCR was performed in a 15 μl reaction containing 5 μl of the eluted DNA using iQSYBRGreen in a Bio-Rad iCycler. Two sets of PCR primers were designed: one for unmethylated and one for methylated DNA sequences. The PCR primers for methylated DNA were used at a final concentration of 0.6 μM in each PCR reaction. PCR was performed by initial denaturation at 95° C. for 5 min, followed by 40 cycles of 30 sec at 95° C., 30 sec at 60° C., and 30 sec at 72° C. Specificity was verified by melting curve analysis. The threshold cycle (Ct) values of each sample were used in the post-PCR data analysis. The ratio of methylated versus unmethylated DNA sequences are presented.
Experiments were performed in a 12-well plate scale using the Pierce Agarose ChIP Kit (Thermo Scientific, 26156) according to the manufacturer's instructions with minor modifications. Briefly, agarose beads were used to pre-bind with antibodies (anti-TET3, anti-Ser-5(P)-RNAP, or pre-immune IgGs as negative controls) overnight at 4° C. The next day, hepatocytes were crosslinked with 1% formaldehyde at room temperature for 10 min, and the reaction was stopped by 1×glycine. ChIPs were carried out overnight at 4° C. Levels of ChIP-purified DNA were determined with qPCR (see Table 1 for primer sequences). The relative enrichments of the indicated DNA regions were calculated using the Percent Input Method according to the manufacturer's instructions and are presented as % input.

[3] = system: primary human hepatocytes; experiment: qPCR of gene expression in primary human hepatocytes; type: cell-based; details: glucagon 20 nM vs vehicle
Description: Mouse primary hepatocytes were prepared as previously described (Zhang N et al., 2018, JCI Insight 3:e120304). Cells were maintained in Williams' Medium (GIBCO, 12551) with 5% FBS, 1% 1 M HEPES buffer (GIBCO, 15630-080), 1% L-Glutamine (GIBCO, 25030-081), 1% SPA (GIBCO, 15240-062), 4 mg/L insulin (GIBCO, 12585-014) and 1 μM dexamethasone (Sigma, D4902). For TET3 overexpression experiments, freshly isolated mouse primary hepatocytes were seeded in 12-well collagen 1-coated plates (BD Biosciences Discovery Labware) at 4×10^5 cells/well and infected with Ad-GFP or Ad-TET3 at 4,000 gc/cell at 3 h after seeding. For TET3 or HNF4α P2 isoform knockdown experiments, cells seeded in 12-well plates were infected with AAV-scr, AAV-siTET3, or AAV-siP2 at 6,000 gc/cell at 3 h after seeding. Medium was changed the next day and glucagon was added at a final concentration of 20 nM. Glucose production assays were carried out at 60 h after infection. […]
Total RNAs were extracted from liver or pancreas tissues or from primary hepatocytes using PureLink RNA Mini Kit. cDNA was synthesized using PrimeScript RT Reagent Kit in a 20 μl reaction containing 0.5-1 μg of total RNA. Real-time quantitative PCR was performed in a 15 μl reaction containing 0.5-1 μl of cDNA using iQSYBRGreen in a Bio-Rad iCycler. […]

[4] = system: mouse primary hepatocytes; experiment: qPCR and immunoblotting of gene expression in mouse primary hepatocytes; type: cell-based
Description: Mouse primary hepatocytes were prepared as previously described (Zhang N et al., 2018, JCI Insight 3:e120304). Cells were maintained in Williams' Medium (GIBCO, 12551) with 5% FBS, 1% 1 M HEPES buffer (GIBCO, 15630-080), 1% L-Glutamine (GIBCO, 25030-081), 1% SPA (GIBCO, 15240-062), 4 mg/L insulin (GIBCO, 12585-014) and 1 μM dexamethasone (Sigma, D4902). For TET3 overexpression experiments, freshly isolated mouse primary hepatocytes were seeded in 12-well collagen 1-coated plates (BD Biosciences Discovery Labware) at 4×10^5 cells/well and infected with Ad-GFP or Ad-TET3 at 4,000 gc/cell at 3 h after seeding. For TET3 or HNF4α P2 isoform knockdown experiments, cells seeded in 12-well plates were infected with AAV-scr, AAV-siTET3, or AAV-siP2 at 6,000 gc/cell at 3 h after seeding. Medium was changed the next day and glucagon was added at a final concentration of 20 nM. Glucose production assays were carried out at 60 h after infection. Human primary hepatocytes (M00995, Millipore, Sigma) were purchased, thawed, and maintained in InVitroGRO™ CP Medium (Sigma-Aldrich, Z990003) containing 2% Torpedo™ Antibiotic Mix. The cells were seeded in 12-well plates coated with collagen 1 (Millipore, 08-115). Infection of AAV-scr, AAV-sihTET3, and AAV-sihP2 were performed the next day after cell thawing and followed the same dosing protocol for the mouse primary hepatocytes.
Total RNAs were extracted from liver or pancreas tissues or from primary hepatocytes using PureLink RNA Mini Kit. cDNA was synthesized using PrimeScript RT Reagent Kit in a 20 μl reaction containing 0.5-1 μg of total RNA. Real-time quantitative PCR was performed in a 15 μl reaction containing 0.5-1 μl of cDNA using iQSYBRGreen in a Bio-Rad iCycler. PCR was performed by initial denaturation at 95° C. for 5 min, followed by 40 cycles of 30 sec at 95° C., 30 sec at 60° C., and 30 sec at 72° C. Specificity was verified by melting curve analysis. The Ct values of each sample were used in the post-PCR data analysis. Gene expression levels were normalized against house-keeping genes GAPDH and RPLP0.
Primary hepatocytes in 12-well plates were dissociated with 0.25% trypsin. After […] centrifugation at 1000 rpm for 5 min, supernatants were discarded and cell pallets were homogenized in 2×SDS-sample buffer (100 ul/well), followed by heating at 100° C. for 5 min, with occasional vortexing. For liver tissue samples, 5 mg of tissues were minced and 200 μl of 2× SDSsample buffer was added, followed by homogenization on ice using a sonicator (Qsonica, Q125-110). Homogenized samples were heated at 100° C. for 5 min and then centrifuged at 12,000 g for 5 min to remove insoluble materials before loading onto 12% SDS gels (5 μl/well), followed by Western blot analysis. Bands on Western blot gels were quantified using ImageJ. GAPDH was used as a loading control.

[5] = glucagon-stimulated versus vehicle treated hepatocytes

N[C@@H](CCS)C(=O)O [Hcy, L-Homocysteine]
H19 expression (RT-qPCR) (HUVECs): dose-dependently upregulates H19

CC(=O)[C@H]1CC[C@H]2[C@@H]3CCC4=CC(=O)CC[C@]4(C)[C@H]3CC[C@]12C [progesterone]
H19 expression [1]: did not affect H19 expression

IL-1β: Recombinant human IL-1β (R&D Systems, 201-LB), combined with TNF-α
H19 expression (RT-qPCR) (HUVECs): additive effect

TNF-α
expression of TET1, TGFBR2 and TSP1 (RT-qPCR) (HUVECs; TNF-α 10 ng/ml 24 h vs vehicle): upregulated expression of TET1, TGFBR2 and TSP1
H19 expression (RT-qPCR) (HUVECs): stimulates H19 expression in a dose-dependent manner

glucagon
binding of TET3 to Hnf4a promoters (ChIP-qPCR) ([2]; glucagon 20 nM 24 h vs vehicle): dramatically increased binding of TET3 to P2 but not P1
methylation of P2 (QMSP) ([2]; glucagon 20 nM 24 h vs vehicle): significantly decreased methylation of P2
RNAP association with P1 (ChIP) [2, 5]: no change in RNAP association with P1
enrichment in RNAP at the P2 promoter (ChIP) [2, 5]: approximately 5 fold
HNF4α expression from P2 and P1 [3]: stimulated expression from P2 (but not P1)
expression of PCK1 and G6PC [3]: increased expression of PCK1 and G6PC
HNF4α P2 usage (qPCR) ([4]; H19 KO hepatocytes, glucagon 20 nM 24 h): failed to do so
Tet3 expression (qPCR) ([4]; H19 KO primary hepatocytes, glucagon 20 nM 24 h): no longer stimulated Tet3 expression
Pck1 and G6pc expression (qPCR) ([4]; WT hepatocytes, glucagon 20 nM vs vehicle): increased expression of Pck1 and G6pc
HNF4α P2 and P1 isoform expression (qPCR) ([4]; WT primary hepatocytes): increased P2 usage in WT hepatocytes
H19 and Tet3 expression (qPCR) ([4]; WT primary hepatocytes, glucagon 20 nM 24 h or AAV-H19 48 h without glucagon): readily induced
